Experiments:
cucumber seedlings = experiment: Hydroponic treatment: rooting of radicle-removed cucumber seedlings; type: in vivo; conditions: for Lateral root number / Root length: cucumber seedlings, 6 days
Text: To further investigate a promoting effect of 2-amino-3-methylhexanoic acid on growth of plant roots, a model system for studying root generation, a radicle-removed cucumber seedling system, was selected. Four layers of wet gauze were spread on a bottom part of a seedling box, and healthy, full and uniform cucumber seeds (variety “Chuxiaqiuguan”, Ningyang County Luming Seed Co., Ltd., Shandong Province) were picked, washed with distilled water, uniformly spread on the gauze, and then covered with four layers of the wet gauze for keeping in a dark place. After kept in a dark place in a 25° C. culture room for 24 hours, the germinated cucumber seeds were taken out and buried in a position 1 cm below the soil, a plurality of plants with consistent growth vigor and completely unfolded two cotyledons were taken after 3 days, the roots were washed with the distilled water, the radicles were cut off, and the plants were fixed with sponge strips and placed in a centrifuge tube box. 400 mL of a 2-amino-3-methylhexanoic acid aqueous solution at concentrations of 0, 10, 100, and 1,000 nM, respectively was added to each box. The hydroponic plants were placed in the 25° C. culture room. After 6 days of light culture, the plants were taken out and the root length and number of newly generated roots were measured and recorded.

strawberry seedlings = experiment: Stem and leaf treatment: growth of strawberry seedlings; type: in vivo
Experimental: In 2021, an experiment was conducted in a Changshanxiang Mingyang family farm (standard greenhouse nursery base) in Zhangjiagang city, Jiangsu province. A strawberry variety to be tested was Hongyan, a tomato variety was Qianxi, and a hot pepper variety was Sujiao No. 5. 2-amino-3-methylhexanoic acid was taken, dissolved with distilled water, and diluted with the distilled water to obtain a solution of 100 nM (14.5 μg/L), a blank control was additionally set, and 0.02% Tween 20 as a surfactant and 14-hydroxylated brassinosteroid (Sichuan New Sun company) with the concentration of 37.5 μg/L as a control agent were added at the same time. Each treatment was repeated three times, the plot area was 20 m^2, and the liquid injection volume per plot was 1 L. The treatment method was foliage spray, an investigation was conducted on day 9 after the application, and the results were shown in Tables 3-5 and FIG. 3-FIG. 5.

Escherichia coli K-12 = conditions: cited from earlier work
S. marcescens = conditions: cited from earlier work
[1] = foliage spray, day 9, 2-amino-3-methylhexanoic acid 100 nM, 14-hydroxylated brassinosteroid 37.5 μg/L

## CCCC(C)C(N)C(=O)O (centres unmarked) [2-amino-3-methylhexanoic acid]
Cucumber seedlings; hydroponic 10 nM
  Lateral root number: 16.00 ± 1.73a piece
  Root length: 2.04 ± 0.67b cm
  Cucumber root length improved compared with the blank control: 33%
  Number of root generation improved compared with the blank control: 182%
Cucumber seedlings; hydroponic 100 nM
  Lateral root number: 19.33 ± 1.53a piece
  Root length: 5.36 ± 0.82a cm
  Cucumber root length improved compared with the blank control: 199%
  Number of root generation (lateral root number) improved compared with the blank control: 241%
Cucumber seedlings; hydroponic 1,000 nM
  Lateral root number: 14.33 ± 5.13a piece
  Root length: 4.50 ± 1.28a cm
  Cucumber root length improved compared with the blank control: 154%
  Number of root generation improved compared with the blank control: 153%
Strawberry seedlings; 14.5 μg/L
  Plant height improved compared with 14-hydroxylated brassinosteroid 37.5 μg/L: 7%
  Plant height improved compared with the blank control: 31%
  Root fresh weight improved compared with 14-hydroxylated brassinosteroid 37.5 μg/L: 65%
  Root fresh weight improved compared with the blank control: 70%
  Root length improved compared with 14-hydroxylated brassinosteroid 37.5 μg/L: 24%
  Root length improved compared with the blank control: 23%
Strawberry seedlings; [1]
  Plant height: 7.00 ± 0.37a cm
  Root fresh weight: 8.49 ± 0.12a g
  Root length: 5.79 ± 0.36a cm
Escherichia coli K-12
  Inhibitory effect: remarkable inhibitory effect
S. marcescens
  Inhibitory effect: no inhibitory effect

— US20240365782A1, “USE OF 2-AMINO-3-METHYLHEXANOIC ACID IN PROMOTING PLANT GROWTH AND INCREASING YIELD” (NANJING AGRICULTURAL UNIVERSITY, priority 2021, published 2024)
